Measured values: ChEMBL document CHEMBL1201862, “PubChem BioAssay data set” (2004)
Active and inactive are the calls of the source.

Key:
[1] = biological target: Peroxisome proliferator-activated receptor gamma/Nuclear receptor coactivator 2 (Homo sapiens, UniProt P37231); format: functional;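 further: agonist potency for raising coactivator recruitment to the receptor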
[2] = biological target: Peroxisome proliferator-activated receptor gamma/Nuclear receptor coactivator 3 (Homo sapiens, UniProt P37231); format: functional;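 further: agonist potency for raising coactivator recruitment to the receptor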
[3] = biological target: Peroxisome proliferator-activated receptor gamma/Nuclear receptor coactivator 1 (Homo sapiens, UniProt P37231); format: functional;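 further: agonist potency as compounds enhance coactivator SRC-1 recruitment to PPARgamma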
H9c2 = assay: cells; format: functional, cell-based; details: Rattus norvegicus, H9c2, Myocardium;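 further: confirmatory concentration-response retest of ultra-high-throughput screening hits for modulation of myocardial damage; cell death induced by hydrogen peroxide oxidative stress; compound pretreatment for 60 min then peroxide exposure for 2 h; potency is for protecting the cells against peroxide damage rather than for killing them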
Genome polyprotein = Genome polyprotein (dengue virus type 2, UniProt P29990); assay: flavivirus cap methylation enzyme inhibition – biochemical, confirmation dose response, primary screen (AID 588689); format: functional
Cytochrome P450 3A4 = Cytochrome P450 3A4 (Homo sapiens, UniProt P08684);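 further: CYP3A4 tested as one member of a cytochrome P450 panel screen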
Protein skinhead-1 = biological target: T1, Protein skinhead-1 (Caenorhabditis elegans, UniProt P34707); format: functional
T1 sequence (P34707 whole entry): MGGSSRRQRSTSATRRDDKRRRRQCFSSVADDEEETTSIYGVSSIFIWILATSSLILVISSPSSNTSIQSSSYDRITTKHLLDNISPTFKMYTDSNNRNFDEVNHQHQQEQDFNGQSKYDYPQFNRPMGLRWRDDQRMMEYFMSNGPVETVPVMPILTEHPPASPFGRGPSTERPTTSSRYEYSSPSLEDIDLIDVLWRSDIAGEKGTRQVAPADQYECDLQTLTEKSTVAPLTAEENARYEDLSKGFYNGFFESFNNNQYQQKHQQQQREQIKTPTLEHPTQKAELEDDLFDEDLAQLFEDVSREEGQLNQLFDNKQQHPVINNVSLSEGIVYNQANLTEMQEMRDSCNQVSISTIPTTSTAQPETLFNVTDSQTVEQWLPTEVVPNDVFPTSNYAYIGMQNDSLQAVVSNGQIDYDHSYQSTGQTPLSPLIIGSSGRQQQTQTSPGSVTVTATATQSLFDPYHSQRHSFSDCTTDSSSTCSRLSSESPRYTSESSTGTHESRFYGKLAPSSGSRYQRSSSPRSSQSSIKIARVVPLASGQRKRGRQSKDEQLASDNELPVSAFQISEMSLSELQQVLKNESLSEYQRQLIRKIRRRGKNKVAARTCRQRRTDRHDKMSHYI

[4] = biological target: Voltage-dependent T-type calcium channel subunit alpha-1H (Homo sapiens, UniProt O95180); format: functional;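 further: channel activity triggered by adding a high calcium stimulation buffer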
[5] = Luminescence Cell-Based Dose Retest to Confirm Inhibitors of Cancer Stem Cells. [Related pubchem assays (depositor defined):AID2717, AID2721]; format: functional; details: Homo sapiens
Cytochrome P450 1A2 = biological target: T2, Cytochrome P450 1A2 (Homo sapiens, UniProt P05177);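 further: PubChem cytochrome P450 panel assay, CYP1A2 panel member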
T2 sequence (P05177 whole entry): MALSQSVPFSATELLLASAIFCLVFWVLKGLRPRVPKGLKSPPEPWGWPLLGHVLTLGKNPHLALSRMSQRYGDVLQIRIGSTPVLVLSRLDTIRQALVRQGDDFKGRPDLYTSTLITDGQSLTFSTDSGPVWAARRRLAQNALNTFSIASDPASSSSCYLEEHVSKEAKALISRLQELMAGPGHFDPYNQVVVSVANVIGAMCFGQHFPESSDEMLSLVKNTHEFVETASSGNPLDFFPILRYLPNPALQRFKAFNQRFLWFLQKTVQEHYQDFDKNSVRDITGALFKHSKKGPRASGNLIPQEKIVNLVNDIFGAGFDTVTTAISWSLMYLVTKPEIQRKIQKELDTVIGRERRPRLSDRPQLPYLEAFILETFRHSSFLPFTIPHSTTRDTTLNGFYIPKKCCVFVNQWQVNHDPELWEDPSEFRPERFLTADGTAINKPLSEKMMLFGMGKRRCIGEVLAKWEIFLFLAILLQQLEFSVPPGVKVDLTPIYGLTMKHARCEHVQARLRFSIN

HEK293 [6] = assay: NOD2 signaling inhibitors in MDP-stimulated cells, cell-based, uHTS, luminescence (AID 2001); format: functional; details: Homo sapiens
HEK293 [7] = assay: inhibition of NOD1-driven NF-kB reporter – cell-based, luminescence, uHTS, primary screen (AID 1578); format: functional; details: Homo sapiens
HEK293 [8] = assay: cells; format: functional, cell-based; details: Homo sapiens
[9] = viability of PTEN-deleted HCT116 cells – cell-based, HCT116 PTEN knockout, dose response (AID 1047); format: functional;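 further: HCT116 colon tumor cells with PTEN knocked out; cells exposed to compound for 60 hours before readout; potency for loss of cell viability measured by luminescence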
[10] = viability of HCT116 lacking mutant beta-catenin – cell-based, human colon tumor, dose response (AID 1045); format: functional;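 further: HCT116 colon tumor cells with beta catenin knocked out; cells exposed to compound for 60 hours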
cells = format: functional
[11] = Luminescence Cell-Based Dose Response HTS to Identify Inhibitors of 5'UTR Stem-Loop Driven Prion Protein mRNA Translation in H4 Neuroglioblastoma Cells. [Related pubchem assays: 1827 (Project Summary), 1813 (Primary HTS)]; format: functional
[12] = NIH3T3 cell viability loss – ATP luminescence, mouse fibroblasts, counter-screen, dose response (AID 2010); format: functional, cell-based;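 further: cells exposed to compound for about 90 hours before reading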
[13] = THP-1 cell cytotoxicity, dose response, cytotoxicity control for non-replicating M. tuberculosis project (AID 489025); format: functional
[14] = Trypanosoma cruzi growth suppression in host cells – NIH3T3 host cells, beta-gal luminescence, confirmation (AID 2044); format: functional, cell-based;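 further: intracellular parasites grown in NIH/3T3 mouse fibroblasts as host cells; luminescent beta-galactosidase reporter signal from transgenic T. cruzi replicating inside host cells; inhibitors lower the luminescence signal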
[15] = luciferase reporter signal suppression in cells – H4 neuroglioma cells, luminescence, dose response (AID 1990); format: functional, cell-based
[16] = biological target: T3, Short transient receptor potential channel 4 (Mus musculus, UniProt Q9QUQ5); assay: calcium entry via TRPC4 opening agents – cell-based, HEK293 TRPC4/mu-opioid, Fluo-4 calcium, dose response (AID 434937); format: functional
T3 sequence (Q9QUQ5 whole entry): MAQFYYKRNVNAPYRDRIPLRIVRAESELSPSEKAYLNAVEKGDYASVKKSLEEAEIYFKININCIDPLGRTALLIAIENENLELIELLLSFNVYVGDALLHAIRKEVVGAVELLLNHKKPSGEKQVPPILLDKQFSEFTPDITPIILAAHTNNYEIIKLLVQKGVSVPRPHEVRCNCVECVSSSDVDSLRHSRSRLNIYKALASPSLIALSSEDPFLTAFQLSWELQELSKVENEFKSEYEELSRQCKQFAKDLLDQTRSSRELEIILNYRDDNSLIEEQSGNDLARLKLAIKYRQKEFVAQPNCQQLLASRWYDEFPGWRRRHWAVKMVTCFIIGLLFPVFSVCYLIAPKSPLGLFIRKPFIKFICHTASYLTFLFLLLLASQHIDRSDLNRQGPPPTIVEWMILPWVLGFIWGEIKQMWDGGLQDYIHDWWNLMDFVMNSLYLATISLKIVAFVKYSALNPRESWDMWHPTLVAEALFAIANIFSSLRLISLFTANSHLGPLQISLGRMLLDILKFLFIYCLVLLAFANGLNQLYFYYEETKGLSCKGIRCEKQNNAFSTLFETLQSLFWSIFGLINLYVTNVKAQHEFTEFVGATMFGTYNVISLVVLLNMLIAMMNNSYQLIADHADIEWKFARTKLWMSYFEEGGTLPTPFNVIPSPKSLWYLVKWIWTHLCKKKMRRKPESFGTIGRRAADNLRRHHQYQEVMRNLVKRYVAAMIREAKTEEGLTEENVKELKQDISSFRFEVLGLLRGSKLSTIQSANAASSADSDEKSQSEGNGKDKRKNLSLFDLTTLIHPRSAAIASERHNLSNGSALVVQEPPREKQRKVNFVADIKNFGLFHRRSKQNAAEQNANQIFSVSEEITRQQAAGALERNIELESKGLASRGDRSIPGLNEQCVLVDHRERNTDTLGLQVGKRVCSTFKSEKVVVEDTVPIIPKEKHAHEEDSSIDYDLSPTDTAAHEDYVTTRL

[17] = alpha-synuclein stem-loop luciferase translation blockers – H4 neuroglioma cells, luminescence, confirmation (AID 1988); format: functional, cell-based
[18] = biological target: T4, Corticotropin-releasing factor receptor 2/Corticotropin-releasing factor-binding protein (Homo sapiens, UniProt P24387+Q13324); assay: Dose Response confirmation of uHTS hits for small molecule antagonists of the CRF-binding protein and CRF-R2 receptor complex.; format: functional; details: read-out: IC50_Mean
T4 sequence (Q13324 whole entry): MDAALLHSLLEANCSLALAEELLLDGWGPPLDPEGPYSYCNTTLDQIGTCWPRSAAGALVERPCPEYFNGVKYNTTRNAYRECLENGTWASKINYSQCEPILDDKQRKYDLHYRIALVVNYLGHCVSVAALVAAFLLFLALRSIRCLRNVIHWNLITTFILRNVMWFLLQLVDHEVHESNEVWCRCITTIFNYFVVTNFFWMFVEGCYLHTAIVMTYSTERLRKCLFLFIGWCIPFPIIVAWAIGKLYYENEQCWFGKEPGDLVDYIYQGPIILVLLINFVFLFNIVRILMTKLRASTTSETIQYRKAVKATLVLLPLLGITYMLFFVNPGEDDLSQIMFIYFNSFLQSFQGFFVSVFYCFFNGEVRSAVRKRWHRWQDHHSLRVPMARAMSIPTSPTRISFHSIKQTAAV
T4 sequence (P24387 whole entry): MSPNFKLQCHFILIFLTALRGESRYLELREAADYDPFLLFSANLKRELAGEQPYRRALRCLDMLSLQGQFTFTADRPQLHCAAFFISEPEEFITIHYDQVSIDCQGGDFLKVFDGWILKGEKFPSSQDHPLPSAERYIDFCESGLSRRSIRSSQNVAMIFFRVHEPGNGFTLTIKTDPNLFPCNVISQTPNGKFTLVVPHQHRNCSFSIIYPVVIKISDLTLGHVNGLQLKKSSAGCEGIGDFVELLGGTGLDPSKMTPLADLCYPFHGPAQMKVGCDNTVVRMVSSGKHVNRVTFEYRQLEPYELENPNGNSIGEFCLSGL

[19] = biological target: T4, Corticotropin-releasing factor receptor 2/Corticotropin-releasing factor-binding protein; assay: activators of CRF receptor 2 with binding protein – uHTS hits, confirmation (AID 602473); format: functional; details: read-out: EC50_Mean

Chain of Peroxisome proliferator-activated receptor gamma/Nuclear receptor coactivator 2 (P37231 whole entry): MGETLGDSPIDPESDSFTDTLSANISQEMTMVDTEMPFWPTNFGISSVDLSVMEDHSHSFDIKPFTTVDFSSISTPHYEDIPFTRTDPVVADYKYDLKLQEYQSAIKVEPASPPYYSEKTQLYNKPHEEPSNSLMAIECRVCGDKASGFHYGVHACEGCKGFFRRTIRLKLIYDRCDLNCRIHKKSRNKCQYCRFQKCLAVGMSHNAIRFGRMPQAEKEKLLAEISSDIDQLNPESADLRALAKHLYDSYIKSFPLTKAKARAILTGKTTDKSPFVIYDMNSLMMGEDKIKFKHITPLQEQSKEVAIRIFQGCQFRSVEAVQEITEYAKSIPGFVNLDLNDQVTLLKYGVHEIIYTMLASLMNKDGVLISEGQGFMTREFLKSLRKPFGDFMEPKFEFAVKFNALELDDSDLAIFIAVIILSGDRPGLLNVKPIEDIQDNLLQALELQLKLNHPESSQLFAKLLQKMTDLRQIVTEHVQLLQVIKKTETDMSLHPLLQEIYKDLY
Chain of Peroxisome proliferator-activated receptor gamma/Nuclear receptor coactivator 2 (Q15596 whole entry, further chain): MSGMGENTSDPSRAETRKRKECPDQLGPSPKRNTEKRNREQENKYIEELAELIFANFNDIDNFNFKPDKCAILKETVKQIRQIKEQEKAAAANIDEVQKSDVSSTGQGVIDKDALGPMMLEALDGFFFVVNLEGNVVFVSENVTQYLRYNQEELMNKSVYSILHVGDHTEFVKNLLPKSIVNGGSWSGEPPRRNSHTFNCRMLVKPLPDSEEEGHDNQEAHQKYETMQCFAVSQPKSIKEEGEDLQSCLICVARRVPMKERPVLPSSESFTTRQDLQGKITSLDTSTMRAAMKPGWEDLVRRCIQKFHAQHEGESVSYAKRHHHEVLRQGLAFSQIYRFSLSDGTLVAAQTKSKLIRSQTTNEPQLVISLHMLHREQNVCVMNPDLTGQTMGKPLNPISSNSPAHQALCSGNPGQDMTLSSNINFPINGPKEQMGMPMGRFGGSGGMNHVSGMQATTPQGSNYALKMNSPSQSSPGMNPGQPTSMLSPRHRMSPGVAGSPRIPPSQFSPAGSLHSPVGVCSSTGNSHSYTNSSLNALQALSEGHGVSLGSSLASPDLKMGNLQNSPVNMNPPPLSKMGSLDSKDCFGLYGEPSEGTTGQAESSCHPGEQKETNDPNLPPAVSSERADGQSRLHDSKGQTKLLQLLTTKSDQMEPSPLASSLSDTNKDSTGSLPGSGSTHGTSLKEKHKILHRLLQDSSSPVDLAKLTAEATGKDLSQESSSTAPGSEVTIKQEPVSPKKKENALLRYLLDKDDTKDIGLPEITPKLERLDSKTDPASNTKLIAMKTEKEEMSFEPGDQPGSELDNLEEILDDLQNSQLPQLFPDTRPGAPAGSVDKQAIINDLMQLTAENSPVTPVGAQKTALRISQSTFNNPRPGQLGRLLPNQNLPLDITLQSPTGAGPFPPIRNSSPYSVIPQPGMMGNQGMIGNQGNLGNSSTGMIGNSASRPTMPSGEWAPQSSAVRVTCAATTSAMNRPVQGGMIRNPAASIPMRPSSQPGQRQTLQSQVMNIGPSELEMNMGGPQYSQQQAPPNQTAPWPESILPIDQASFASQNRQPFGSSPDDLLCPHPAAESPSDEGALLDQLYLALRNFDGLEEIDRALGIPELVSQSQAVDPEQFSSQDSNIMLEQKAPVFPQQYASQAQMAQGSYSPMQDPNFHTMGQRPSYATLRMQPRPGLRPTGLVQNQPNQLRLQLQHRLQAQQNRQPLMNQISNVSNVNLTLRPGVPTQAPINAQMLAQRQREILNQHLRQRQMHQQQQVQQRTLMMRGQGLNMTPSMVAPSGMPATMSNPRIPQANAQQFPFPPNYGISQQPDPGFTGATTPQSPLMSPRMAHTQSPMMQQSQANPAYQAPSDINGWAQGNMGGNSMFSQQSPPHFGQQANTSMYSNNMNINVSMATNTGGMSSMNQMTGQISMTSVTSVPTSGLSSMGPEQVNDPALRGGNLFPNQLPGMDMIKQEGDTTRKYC
Chain of Peroxisome proliferator-activated receptor gamma/Nuclear receptor coactivator 3 (P37231 whole entry): as the sequence (P37231 whole entry) above
Chain of Peroxisome proliferator-activated receptor gamma/Nuclear receptor coactivator 3 (Q9Y6Q9 whole entry, further chain): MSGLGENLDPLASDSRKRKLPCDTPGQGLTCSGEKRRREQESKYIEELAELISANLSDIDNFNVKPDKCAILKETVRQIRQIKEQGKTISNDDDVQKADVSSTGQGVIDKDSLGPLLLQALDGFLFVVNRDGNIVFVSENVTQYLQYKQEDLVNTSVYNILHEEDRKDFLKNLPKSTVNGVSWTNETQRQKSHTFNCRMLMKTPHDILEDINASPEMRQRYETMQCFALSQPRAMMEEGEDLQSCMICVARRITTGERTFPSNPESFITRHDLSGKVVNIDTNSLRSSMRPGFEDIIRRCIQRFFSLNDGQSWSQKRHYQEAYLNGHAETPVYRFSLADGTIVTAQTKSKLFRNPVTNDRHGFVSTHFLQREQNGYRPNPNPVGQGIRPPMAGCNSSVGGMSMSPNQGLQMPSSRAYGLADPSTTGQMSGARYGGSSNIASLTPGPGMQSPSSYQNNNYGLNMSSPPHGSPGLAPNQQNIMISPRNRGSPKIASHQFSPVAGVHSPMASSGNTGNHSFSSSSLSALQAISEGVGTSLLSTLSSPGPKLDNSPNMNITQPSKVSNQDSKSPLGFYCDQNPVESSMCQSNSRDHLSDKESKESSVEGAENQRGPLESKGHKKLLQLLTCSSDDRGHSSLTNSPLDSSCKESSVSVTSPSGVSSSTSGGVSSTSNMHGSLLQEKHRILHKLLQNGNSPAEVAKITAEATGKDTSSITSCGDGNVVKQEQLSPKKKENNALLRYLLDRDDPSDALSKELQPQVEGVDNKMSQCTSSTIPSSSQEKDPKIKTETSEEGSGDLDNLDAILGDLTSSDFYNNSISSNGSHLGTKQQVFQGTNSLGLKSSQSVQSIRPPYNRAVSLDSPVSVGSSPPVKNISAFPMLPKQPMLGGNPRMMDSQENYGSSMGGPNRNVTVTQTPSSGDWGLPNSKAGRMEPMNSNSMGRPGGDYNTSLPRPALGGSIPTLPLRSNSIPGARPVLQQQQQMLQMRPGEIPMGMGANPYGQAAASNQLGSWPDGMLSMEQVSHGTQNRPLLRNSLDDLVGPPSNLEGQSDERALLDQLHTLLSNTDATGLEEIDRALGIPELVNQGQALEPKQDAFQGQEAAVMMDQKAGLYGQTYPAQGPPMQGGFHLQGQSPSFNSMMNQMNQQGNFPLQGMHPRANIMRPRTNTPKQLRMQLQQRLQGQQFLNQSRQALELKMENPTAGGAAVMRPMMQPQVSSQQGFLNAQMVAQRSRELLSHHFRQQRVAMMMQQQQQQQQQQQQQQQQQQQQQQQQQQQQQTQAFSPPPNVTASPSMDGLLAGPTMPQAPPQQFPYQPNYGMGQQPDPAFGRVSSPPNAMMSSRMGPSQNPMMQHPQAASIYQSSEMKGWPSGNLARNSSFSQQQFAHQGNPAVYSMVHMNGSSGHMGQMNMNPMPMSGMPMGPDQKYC
Chain of Genome polyprotein (P29990 2492-3391 limits assumed): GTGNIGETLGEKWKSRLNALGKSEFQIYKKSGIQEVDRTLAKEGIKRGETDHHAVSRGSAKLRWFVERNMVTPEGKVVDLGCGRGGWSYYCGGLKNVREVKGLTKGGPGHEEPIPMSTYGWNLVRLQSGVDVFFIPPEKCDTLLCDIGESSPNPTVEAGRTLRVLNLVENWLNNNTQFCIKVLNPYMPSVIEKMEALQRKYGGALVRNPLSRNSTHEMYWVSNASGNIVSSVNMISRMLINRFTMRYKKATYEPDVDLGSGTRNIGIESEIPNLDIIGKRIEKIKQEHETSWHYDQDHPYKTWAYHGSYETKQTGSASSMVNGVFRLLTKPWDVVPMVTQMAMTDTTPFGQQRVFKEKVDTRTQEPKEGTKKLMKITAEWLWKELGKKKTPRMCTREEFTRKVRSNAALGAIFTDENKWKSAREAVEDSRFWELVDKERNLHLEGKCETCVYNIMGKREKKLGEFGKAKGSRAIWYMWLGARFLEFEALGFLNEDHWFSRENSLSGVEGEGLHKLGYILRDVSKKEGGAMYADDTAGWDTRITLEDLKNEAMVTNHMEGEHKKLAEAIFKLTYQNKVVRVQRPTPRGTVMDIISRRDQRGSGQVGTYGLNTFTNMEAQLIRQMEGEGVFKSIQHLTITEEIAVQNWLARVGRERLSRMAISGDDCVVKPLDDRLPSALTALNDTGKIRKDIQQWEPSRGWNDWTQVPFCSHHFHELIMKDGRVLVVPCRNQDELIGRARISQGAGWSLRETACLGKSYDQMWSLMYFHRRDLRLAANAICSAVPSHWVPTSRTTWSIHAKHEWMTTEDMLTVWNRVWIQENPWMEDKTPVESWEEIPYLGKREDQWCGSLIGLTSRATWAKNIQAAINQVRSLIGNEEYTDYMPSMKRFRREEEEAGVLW

With `CCN(CC)CCn1c(NC(=O)c2ccc(Cl)cc2)nc2ccccc21` the EC50 [1] was > 79.4 µM (not active), the EC50 [2] was > 79.4 µM (not active) and the EC50 [3] was > 79.4 µM (not active). For the same molecule, the IC50 (H9c2) was > 79 µM (inactive).
For `CN1C(=O)C(=Cc2ccccc2Oc2ccc(Cl)c(F)c2)C(=O)N(C)C1=O`, the IC50 (Genome polyprotein) was 51.9 µM (active) and the AC50 (Cytochrome P450 3A4) was 14.1 µM (inconclusive).
For `COc1ccccc1C(=O)Nc1ccc(Br)c2cccnc12`, the IC50 (Protein skinhead-1) was > 100 µM (inactive).
In the case of `O=C(CSc1nc2ccccc2[nH]1)Nc1ccc2c(c1)OCCO2`, the EC50 [4] is reported as 13.3 µM (active).
In the case of `Cc1snc(S(=O)(=O)/C(C#N)=N/Nc2ccc(C(F)(F)F)cc2)c1C#N`, the EC50 [4] is reported as 6.48 µM (active) and the AC50 [5] is reported as 7.49 µM (active).
With `Cc1ccc(S(=O)(=O)NC(=O)COc2ccccc2)cc1` the EC50 [1] was > 79.4 µM (not active), the EC50 [2] was > 79.4 µM (not active) and the EC50 [3] was > 79.4 µM (not active).
With `O=C(Nc1ccn(Cc2ccccc2F)n1)c1ccc(COc2cc(Cl)ccc2Cl)o1` the EC50 [4] was 7.11 µM (active) and the AC50 (Cytochrome P450 1A2) was 3.55 µM (inconclusive).
In the case of `COc1cc(/C=C2/CCc3ccccc3C2=O)cc(OC)c1OC`, the IC50 (HEK293 [6]) is reported as 9.24 µM (active), the EC50 (HEK293 [7]) is reported as > 20 µM (inactive) and the IC50 (HEK293 [8]) is reported as > 20 µM (inactive).
For `Cn1c(=O)n(C)c2cc(/C=C(/C#N)C(=O)NCc3ccco3)ccc21`, the IC50 (Protein skinhead-1) was > 100 µM (inactive).
For `COc1ccccc1N(O)C1CC(=O)N(c2ccc(Br)cc2)C1=O` (stereo unspecified), the IC50 (Genome polyprotein) was 34.7 µM (active).
In the case of `CCN1CCCC1CNC(=O)c1cc2c(-c3ccc(Cl)cc3)nn(C)c2s1` (stereo unspecified), the EC50 [1] is reported as > 79.4 µM (not active), the EC50 [9] is reported as 5.98 µM (active) and the EC50 [2] is reported as > 79.4 µM (not active). For the same molecule, the EC50 [10] was 5.02 µM (active) and the EC50 [3] was > 79.4 µM (not active).
With `COC(=O)c1cnn(-c2nc3c(C)cccc3s2)c1C` the EC50 [1] was 30 µM (not active), the EC50 [2] was 67 µM (not active) and the EC50 [3] was 54.5 µM (not active).
In the case of `Cc1ccc(-c2ccc(/C=N/N3C(=O)C4C5C=CC(C6CC56)C4C3=O)o2)c([N+](=O)[O-])c1` (stereo unspecified), the EC50 [4] is reported as 7.22 µM (active).
In the case of `Cc1cc(OCCCCn2ccnc2)cc(C)c1Cl`, the IC50 (cells) is reported as 15.8 µM (active), the EC50 [11] is reported as > 120 µM (not active) and the EC50 [12] is reported as > 60 µM (not active). For the same molecule, the CC50 [13] was 33.2 µM (active), the EC50 [14] was 0.145 µM (active) and the EC50 [15] was > 120 µM (not active). For the same molecule, the EC50 [16] was 5.31 µM (active) and the EC50 [17] was 16 µM (active).
In the case of `C/C(CC(c1ccccc1)c1c(O)oc2ccccc2c1=O)=N\Nc1ccc([N+](=O)[O-])cc1[N+](=O)[O-]` (stereo unspecified), the IC50 (Genome polyprotein) is reported as 94.4 µM (active).
For `COc1ccccc1NC(=O)c1nnn(Cc2ccccc2)c1NC(=O)C(F)(F)F`, the EC50 [4] was 3.86 µM (active).
With `CSc1ccc(Cl)c(C(=O)NCc2ccco2)c1` the IC50 (Protein skinhead-1) was > 100 µM (inactive).
With `O=C(COc1ccc(Cl)cc1)NCCSCc1cccc(Cl)c1` the EC50 [4] was 3.76 µM (active).
For `Cc1ccc(NS(=O)(=O)c2cccs2)cc1S(=O)(=O)N1CCCCCC1`, the EC50 [1] was > 79.4 µM (not active), the IC50 [18] was > 47.1 µM (inactive) and the EC50 [2] was > 79.4 µM (not active). The EC50 [19] was > 53 µM (inactive) and the EC50 [3] was > 79.4 µM (not active).
